According to patent US20230310393A1 (Tianjin Creatron Biotechnology Co., Ltd., priority 2020, published 2023):
Structures can show the parent of a compound that is named as a salt.

How the values were obtained:
[1] = Screening of crystallization inhibitors: sorafenib content in polymer carrier/cholate medium over time; format: physicochemical; details: pH 6.8 phosphate + 0.1% SDS with the inhibitor, 37° C.
[2] = Solubility test of solid dispersions (pH 1.0 hydrochloric acid, pH 6.8 phosphate buffer, FaSSGF, FaSSIF); format: physicochemical; details: pH 1.0 hydrochloric acid solution, 37° C., main drug:carrier 1:3
Method: An appropriate amount of solid dispersion (SD) was added to a pH 1.0 hydrochloric acid solution and a pH 6.8 phosphate buffer solution, while keeping the SD in excess, and shaken at 37° C. in a shaker at 300 rpm.

| SMILES | Sorafenib content detection ([1]; 0.5 h) | Sorafenib content detection ([1]; 1 h) | Sorafenib content detection ([1]; 2 h) | Sorafenib content detection ([1]; 3 h) | Sorafenib content detection ([1]; 4 h) | Sorafenib content detection ([1]; 6 h) | Solubility ([2]; 0.5 h) | Solubility ([2]; 2 h) | Solubility ([2]; 4 h) |
| --- | --- | --- | --- | --- | --- | --- | --- | --- | --- |
| C[C@H](CCC(=O)NCC(=O)[O-])[C@H]1CC[C@H]2[C@@H]3[C@H](O)C[C@@H]4C[C@H](O)CC[C@]4(C)[C@H]3C[C@H](O)[C@]12C.[Na+] [0.3% SGC, sodium glycocholate] | 14.32 µg/mL | 5.88 µg/mL | 4.32 µg/mL | 3.98 µg/mL | 3.77 µg/mL | 3.57 µg/mL | – | – | – |
| C[C@H](CCC(=O)NCC(=O)[O-])[C@H]1CC[C@H]2[C@@H]3[C@H](O)C[C@@H]4C[C@H](O)CC[C@]4(C)[C@H]3CC[C@]12C.[Na+] [0.3% SGCDC, sodium glycochenodeoxycholate] | 61.59 µg/mL | 47.08 µg/mL | 10.41 µg/mL | 5.38 µg/mL | 4.28 µg/mL | 3.68 µg/mL | – | – | – |
| C[C@H](CCC(=O)NCC(=O)[O-])[C@H]1CC[C@H]2[C@@H]3CC[C@@H]4C[C@H](O)CC[C@]4(C)[C@H]3C[C@H](O)[C@]12C.[Na+] [0.3% SGDC, sodium glycodeoxycholate] | 15.78 µg/mL | 6.28 µg/mL | 4.11 µg/mL | 4.01 µg/mL | 4.04 µg/mL | 3.87 µg/mL | – | – | – |

Now from value to molecule:

| Sorafenib content detection ([1]; 0.5 h) | Sorafenib content detection ([1]; 1 h) | Sorafenib content detection ([1]; 2 h) | Sorafenib content detection ([1]; 3 h) | Sorafenib content detection ([1]; 4 h) | Sorafenib content detection ([1]; 6 h) | Solubility ([2]; 0.5 h) | Solubility ([2]; 2 h) | Solubility ([2]; 4 h) | SMILES |
| --- | --- | --- | --- | --- | --- | --- | --- | --- | --- |
| 14.43 µg/mL | 6.22 µg/mL | 4.69 µg/mL | 4.79 µg/mL | 4.81 µg/mL | 5.79 µg/mL | – | – | – | C[C@H](CCC(=O)NCCS(=O)(=O)[O-])[C@H]1CC[C@H]2[C@@H]3[C@@H](O)C[C@@H]4C[C@H](O)CC[C@]4(C)[C@H]3CC[C@]12C.[Na+] [0.3% STCDC] |
| 47.72 µg/mL | 25.90 µg/mL | 11.19 µg/mL | 7.82 µg/mL | 6.58 µg/mL | 5.90 µg/mL | – | – | – | C[C@H](CCC(=O)NCCS(=O)(=O)[O-])[C@H]1CC[C@H]2[C@@H]3CC[C@@H]4C[C@H](O)CC[C@]4(C)[C@H]3C[C@H](O)[C@]12C.[Na+] [0.3% STDC, sodium taurodeoxycholate] |
| – | – | – | – | – | – | 3.7 µg/mL | 4.1 µg/mL | 4.1 µg/mL | CNC(=O)c1cc(Oc2ccc(NC(=O)Nc3ccc(Cl)c(C(F)(F)F)c3)cc2)ccn1 [TSSLFN, Sorafenib tosylate] |
